Data reported in the METLIN SMRT retention time set (Domingo-Almenara et al. 2019).

Test: gradient 5% acetonitrile 3 min, to 50% in 2 min, to 85% in 15 min, held 3 min, 100 µL/min
Conditions: column: Zorbax Extend-C18 2.1 x 50 mm; eluents: water / acetonitrile, 0.1% formic acid
Procedure, shortened: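 Retention times of pure standards were taken from adduct peaks that were selected by computer and manually inspected. Over 3 months, mixtures of ~100 molecules were run by HPLC–quadrupole time-of-flight mass spectrometry in positive and negative ionization mode. The Zorbax Extend-C18 column (2.1 × 50 mm, 1.8 μm) ran at 100 μL/min in water and acetonitrile, each containing 0.1% formic acid, with 40 μL dead volume and 900 μL dwell volume.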

Row | RP-LC retention time [s] | SMILES
1 | 1130 | CCc1nc(-c2csc(S(=O)(=O)N3CCCC(C(=O)Nc4ccc(F)c(Cl)c4)C3)c2)no1 (centres undefined)
2 | 678 | CCOc1ccc(C2c3[nH]c4ccccc4c3CCN2C(=O)c2ccnn2C)cc1 (centres undefined)
3 | 939 | CC1=C(c2ccc(C(C)C)cc2)S(=O)(=O)N=C1N1CCC(C(=O)NCc2ccco2)CC1
4 | 963 | CCc1nc(-c2ccc(-c3noc(CNC(=O)c4ccccc4)n3)cc2)cs1
5 | 765 | FC(F)(F)c1cccc(CN2CCCN(c3ncccc3-c3nc(C4CC4)no3)CC2)c1
6 | 803 | CCNc1nc(C)cc(N2CCN(S(=O)(=O)c3cc(C(C)(C)C)ccc3OC)CC2)n1
7 | 1070 | CCN1C(=O)COc2ccc(-c3csc(NC(=O)CCc4ccc(C)cc4)n3)cc21
8 | 695 | COC(=O)c1ccc2c(=O)n(-c3cc(C)cc(C)c3)c(N3CCN(C(C)C)CC3)nc2c1
9 | 740 | CCN1c2ccccc2C(=O)NC12CCN(C(=O)c1ccc3c(c1)OCO3)CC2
10 | 674 | CC(=O)c1cccc(NC(=O)Cn2cnc3nc4c(cc3c2=O)CCCC4)c1
11 | 662 | Cc1ccc(-c2cc3c(=O)n(Cc4noc(CN5CCN(C)CC5)n4)ccn3n2)cc1C
12 | 689 | O=C(c1csc(S(=O)(=O)N2CCC(C(=O)N3CCCCC3)CC2)c1)N1CCOCC1
13 | 590 | O=C(Nc1ccc2c(c1)OCCO2)N1CCCC(CN2CCOCC2)CC1 (centres undefined)
14 | 691 | CCC(C)NC(=O)c1ccc2c(c1)CC(=O)N2CC (centres undefined)
15 | 735 | CCCNc1cc(N2CCCC(CCC(=O)Nc3ccccc3CC)C2)ncn1 (centres undefined)
16 | 641 | COc1ccc(-c2cn3cccnc3n2)cc1NC(=O)c1ccc(OC)c(OC)c1
17 | 815 | CCn1cnc2ccc(-c3noc(COc4ccc(Cl)cc4)n3)cc21
18 | 624 | Cc1nnc(NC(=O)C2CCN(C(=O)c3ccccc3F)CC2)s1
19 | 772 | Cc1ccc(C)c(NC(=O)Cn2c(N3CCC(C)CC3)nc(C)cc2=O)c1
20 | 680 | O=C(NCc1cccc(C(F)(F)F)c1)C1(CCO)CCN(Cc2ccccc2)C1 (centres undefined)
21 | 1020 | O=C(NCc1ccc(F)cc1F)c1sc2ncccc2c1-n1cccc1
22 | 1400 | COc1ccc(-c2nc(NC(=O)c3ccc(-c4nc5ccccc5s4)s3)sc2C)cc1
23 | 979 | O=C(Cn1nc(N2CCSCC2)c2ccccc2c1=O)Nc1ccccc1Cl

Row | RP-LC retention time [s] | SMILES
24 | 583 | COCC(=O)NC1CCC12CCN(Cc1ccc(C)o1)CC2 (centres undefined)
25 | 754 | CC1(C(=O)NCc2ccccc2)Cn2cnc(C(=O)NCCc3ccccc3)c2C(=O)N1C1CC1 (centres undefined)
26 | 681 | COc1ccc(N2CCN(c3nc4ccccc4cc3-c3noc(C)n3)CC2)cc1
27 | 555 | O=C(NCC(=O)N1CCn2c1nc1ccccc12)c1ccc(=O)[nH]c1
28 | 742 | CCN1CCN(c2ccc(NC(=O)c3cccc(C)c3)cn2)C1=O
29 | 1090 | COc1ccc(NC(=O)c2cc3c(=O)n(CC(C)C)c4ccccc4n3n2)c(C)c1
30 | 1280 | Cc1nc2cc(-c3noc(-c4ccc(C)c(C)c4)n3)ccc2o1
31 | 838 | CCCNC(=O)C1CCCN(c2ccc(SCC(=O)Nc3cc(C)c(Cl)cc3OC)nn2)C1 (centres undefined)
32 | 580 | COc1ccccc1-c1nc(Cn2ccnc2)no1
33 | 798 | COc1cccc(NC(=O)Cn2c(=O)c(CCC(=O)NCC(C)C)nc3ccccc32)c1
34 | 557 | O=C(CCc1c(-c2ccc(Br)cc2)nc2ccccn12)NCc1cccnc1
35 | 936 | CCN(CC)S(=O)(=O)c1ccc(-c2c(C)noc2C)cc1
36 | 686 | Cc1ccc(NS(=O)(=O)c2cc3n(c2)CCCNC3=O)c(Cl)c1
37 | 673 | Cc1csc(-c2cc(S(=O)(=O)NCCN3CCCCC3C)cn2CC(=O)N2CCCCC2)n1 (centres undefined)
38 | 837 | COc1ccc(-c2nnc(N3CCC(C(=O)Nc4ccc(OC)cc4OC)CC3)o2)cc1
39 | 762 | Cc1ccc(NC(=O)N2CCc3c(c(-c4nc(C)no4)nn3C)C2)c(C)c1
40 | 777 | CCn1ccc(C(=O)NC2CCN(C3=NS(=O)(=O)C(c4ccc(F)cc4)=C3C)CC2)n1
41 | 825 | CCCCC(=O)N1CCCN(C2=NS(=O)(=O)C(c3ccc(F)cc3)=C2C)CC1
42 | 771 | CCCNC(=O)NCCC1CCN(S(=O)(=O)c2ccc(F)cc2)CC1
43 | 1020 | COc1ccc2c(c1)C1CC(C)(O2)N(C)C(=O)C1S(=O)(=O)c1ccc(C)cc1 (centres undefined)
44 | 634 | O=C1c2ccccc2C(=O)c2c(NCCNCCO)ccc(O)c21
45 | 641 | Cc1ccc(C)c2sc(NCc3ccccn3)nc12
46 | 936 | Cc1cc(F)ccc1NC(=O)c1cc(C2CC2)on1

Row | RP-LC retention time [s] | SMILES
47 | 778 | CC(C)N1CCn2cc(S(=O)(=O)Nc3ccc(F)cc3Cl)cc2C1=O
48 | 787 | O=C(NCc1ccco1)c1c(O)c2sccc2[nH]c1=O
49 | 785 | O=C(NCC1CCCO1)c1nc2ccccn2c1-c1ccc(Cl)cc1 (centres undefined)
50 | 764 | CCNc1nc(C)cc(N2CCN(S(=O)(=O)c3ccc(OC)c(C)c3C)CC2)n1
51 | 868 | O=C(NCCc1cccs1)c1cc2n(n1)CCCN(Cc1ccc(F)cc1)C2=O
52 | 768 | COc1ccc(NC(=O)N2CCC(n3c(C(F)(F)F)nc4cccnc43)CC2)cc1OC
53 | 932 | COc1ccc(CNC(=O)C2(C)CCCN(S(=O)(=O)c3ccccc3Cl)C2)cc1 (centres undefined)
54 | 655 | COc1cccc(NC(=O)C2CC(=O)N(c3ccc4c(c3)CCN4C(=O)C3CC3)C2)c1 (centres undefined)
55 | 800 | Cc1ccc(NS(=O)(=O)c2cc3n(c2)CCN(C(C)C)C3=O)c(C)c1
56 | 874 | Cc1ccc(-c2noc(CSc3nc4cc5c(cc4c(=O)n3C3CC3)OCO5)n2)cc1
57 | 1170 | Brc1ccc(C(c2nnc(-c3ccccc3)o2)N2CCN(c3ncccn3)CC2)cc1 (centres undefined)
58 | 809 | Cc1ccc2c(c1)NN=C(C(=O)N1CCC(C)CC1)S2(=O)=O
59 | 764 | Cn1ncc2c3ccccc3n(CC(=O)NCc3cccs3)c2c1=O
60 | 628 | CC(C)n1nc(-c2ccc3oc(N)nc3c2)c2c(N)ncnc21
61 | 934 | CCCn1c(=O)sc2cc(S(=O)(=O)N3CCC(C(=O)NCc4ccc(F)cc4)CC3)ccc21
62 | 566 | COC(=O)CNC(=O)N(C)Cc1nc2cc(C(=O)N3CCCC3)ccc2n1C
63 | 1110 | Cn1cc(C2=C(c3ccc(Cl)cc3Cl)C(=O)NC2=O)c2ccccc21
64 | 804 | CCOCc1nc(C2CCCN(C(=O)NC3CCCCC3)C2)no1 (centres undefined)
65 | 701 | Cc1cccc(NC(=O)Cn2ccc3sccc3c2=O)c1
66 | 874 | COc1ccc(NC(=O)N2CCCC(C)(C(=O)NCc3ccc(C)cc3)C2)cc1 (centres undefined)
67 | 661 | CCC(CN1CCOCC1)NC(=O)c1c2c(cn(-c3ccccc3)c1=O)C(=O)CC(C)(C)C2 (centres undefined)
68 | 597 | COc1ccc(C(=O)NCc2ccc3c(c2)ncn3C(C)C)cn1
69 | 998 | Cc1cc(NC(=O)Cn2c(=O)cc(-c3nc(C4CC4)no3)c3ccccc32)ccc1F

Row | RP-LC retention time [s] | SMILES
70 | 752 | COc1ccc(-c2csc(NC(=O)/C=C/C(=O)O)n2)cc1
71 | 1030 | COc1ccc2c(c1)C1CC(C)(O2)N(C)C(=O)C1S(=O)(=O)c1ccc(C)c(C)c1 (centres undefined)
72 | 526 | COc1ccc(N2C(=O)CCC(C(=O)NCCCN3CCN(C)CC3)C2c2ccc(F)cc2)cc1 (centres undefined)
73 | 754 | OC(c1ccccc1)(c1ccccc1)c1nccn1-c1ccccc1
74 | 696 | COc1ccccc1N1CCN(S(=O)(=O)c2cc3n(c2)CCCNC3=O)CC1
75 | 1060 | CCN(CC)S(=O)(=O)c1ccc2c(c1)cc(C(=O)NCCc1c[nH]c3ccc(Cl)cc13)n2C
76 | 673 | CN(CCCNC(=O)CCCn1c(=O)c2cccn2c2ccc(F)cc21)Cc1ccccc1
77 | 929 | CCOC(=O)c1c(C)c(C(=O)NCc2ccccc2Cl)c(C)n1CC
78 | 682 | COc1cc(NC(=O)NCCc2nc3cccnc3n2-c2ccccc2)cc(OC)c1OC
79 | 739 | O=C(C1CC1)N1CCCn2nc(-c3ccccc3)cc2C1
80 | 655 | N#CC1=C2CCCCC2(O)NC1=O (centres undefined)
81 | 1160 | O=C(COc1ccccc1-c1nnc(-c2ccccc2)o1)Nc1ccc2c(c1)OCCO2
82 | 719 | Cc1cccn2c(Nc3ccc4c(c3)OCCO4)c(-c3ccccc3O)nc12
83 | 1090 | CC(C)c1cc(C(=O)Nc2ccc(F)cc2)nc2ccnn12
84 | 694 | CN(Cc1nc(-c2ccc(N3CCSCC3)nc2)no1)C1CCCCC1
85 | 749 | O=C1[C@H]2CN(Cc3ccc(Cl)cc3)C[C@H]2C(=O)N1CCc1ccccc1
86 | 587 | O=C(O)CCC1CCN(c2cc(NC3CC3)ncn2)CC1
87 | 586 | CC(NC(=O)c1ccc(-c2ccnc(N3CCCC3)n2)cc1)c1cccnc1 (centres undefined)
88 | 1250 | COc1cccc(-n2c(=O)c(C(=O)Nc3ccc(F)c(F)c3)c(O)c3cccnc32)c1
89 | 544 | O=C(NCCc1ccncc1)C1CN(C(=O)COc2ccccc2F)C1
